Reference: PMC8432876, “Acetylcholine esterase inhibitory activity of green synthesized nanosilver by naphthopyrones isolated from marine-derived Aspergillus niger” (PLoS ONE, 2021)

Molecular target: acetylcholine esterase AChE (Homo sapiens, UniProt P22303)
Experiment: biochemical
Type: biochemical
Conditions: Ellman's method; for IC50: AChEI activity
Experimental: Acetylcholine esterase inhibitory activity of isolated compounds and their synthesized silver nanoparticles were assessed using Ellman’s method as previously prescribed.
Acetylcholine esterase inhibitory (AChEI) activity was assessed by using Ellman’s method.

acetylcholine esterase AChE, sequence (P22303 32-614): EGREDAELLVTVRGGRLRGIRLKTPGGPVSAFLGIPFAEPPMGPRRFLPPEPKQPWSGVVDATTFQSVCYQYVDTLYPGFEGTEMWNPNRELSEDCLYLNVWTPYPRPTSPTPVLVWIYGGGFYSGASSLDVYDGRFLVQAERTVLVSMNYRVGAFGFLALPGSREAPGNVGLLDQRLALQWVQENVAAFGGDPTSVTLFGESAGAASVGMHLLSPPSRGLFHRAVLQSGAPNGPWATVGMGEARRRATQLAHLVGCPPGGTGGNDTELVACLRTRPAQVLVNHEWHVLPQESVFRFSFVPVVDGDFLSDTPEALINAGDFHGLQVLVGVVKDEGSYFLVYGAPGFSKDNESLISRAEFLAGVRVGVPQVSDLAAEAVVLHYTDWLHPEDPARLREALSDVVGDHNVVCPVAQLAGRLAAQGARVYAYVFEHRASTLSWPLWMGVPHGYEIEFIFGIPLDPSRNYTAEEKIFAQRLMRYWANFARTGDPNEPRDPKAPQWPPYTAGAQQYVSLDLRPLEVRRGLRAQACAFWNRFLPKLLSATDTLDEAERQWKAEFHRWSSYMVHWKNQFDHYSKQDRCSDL

## NC(=O)c1c[nH]c(Cc2ccccc2)cc1=O [Asperginin A (7), Aspernigrin A]
  IC50: 20.2 ± 3.03 µM

## COc1cc(OC)c2c(O)c3c(=O)cc(C)oc3c(-c3c(OC)cc4cc5oc(C)cc(=O)c5c(O)c4c3OC)c2c1 [Aurasperone A (3), Aurasperone A]
  IC50: 4.9 ± 2.16 µM

## COc1cc(OC)c2c(c1)cc(O)c1c(=O)cc(C)oc12 [Flavasperone (1), Flavasperone]
  IC50: > 25 µM
  AChE inhibitory activity (in words): didn’t show any inhibitory activity

## COc1cc(OC)c2c(O)c3c(=O)cc(C)oc3c(-c3c(OC)cc4cc(O)c5c(=O)cc(C)oc5c4c3OC)c2c1 [Fonsecinone A (4), Fonsecinone A]
  IC50: 7.52 ± 2.16 µM

## COc1cc(OC)c2c(O)c3c(=O)cc(C)oc3cc2c1 [Rubrofusarin B (2), Rubrofusarin B]
  IC50: 13.9 ± 2.16 µM
  AChE inhibitory activity (in words): moderate inhibitory activity
